Data from publication PMC10765375, “Crystal structure and enzymology of Solanum tuberosum inositol tris/tetrakisphosphate kinase 1 (StITPK1)” (Biochemistry, 2023).
Entries after “also recorded” stand apart in the source; their conditions may differ. Read-outs that look alike come from different tables or passages of the source.

How the values were obtained:
StITPK1 [1] = molecular target: T1, StITPK1 (Solanum tuberosum, UniProt A4H2J0); test: Fluorescence polarization displacement of 2-FAM-InsP5; type: binding; conditions: Cheng-Prusoff with Kd 48 nM
Source text: To determine the relative strengths of binding of different inositol phosphate and inositol pyrophosphate substrates of StITPK1 we undertook fluorescence polarization experiments with 2-FAM-InsP5 [35]. […] A saturation curve for binding of 2-FAM-InsP5 to StITPK1 is shown (Figure S5) and displacement curves are shown for diverse inositol phosphates (Figure 2). The structures of these compounds are shown (Figure S1). […]
Fluorescence polarization (anisotropy)
A curve for binding of 2-FAM-InsP5 to StITPK1 was obtained by incubation of 2 nM 2-FAM-InsP5 [1] with increasing concentration (1-500 nM) of StITPK1 in 20 mM HEPES pH 6.5, 1 mM EDTA, 100 mM NaCl, after. Thereafter, displacement assays were performed by titration of inositol phosphate, inositol pyrophosphate […]
or analog thereof with 2 nM 2-FAM-InsP5 and 50 nM StITPK1. Compounds were tested for displacement in a range of 1 nM - 50 µM. Fluorescence polarization was measured in 384-well, black, low-binding plates, Corning product 3573. Binding and displacement curves (anisotropy) were log transformed and fitted to a 4-parameter logistic (in GraphPad Prism v.6 software (GraphPad Software Inc., San Diego, USA). Fitting of the […]
Substituting the value of Kd for KM in the Cheng-Prusoff equation for competitive inhibition: […]
with concentration of 2-FAM-InsP5 [S], yielded Ki with confidence intervals adjusted by linear approximation.
M.; Jamieson, A. G.; Potter, B. V.; Schwabe, J. W., Insights into the activation mechanism of class I HDAC complexes by inositol phosphates. Nat Commun 2016, 7, 11262. […]

StITPK1 [2] = molecular target: T1, StITPK1; test: Kinase assay with ATP, HPLC of products; type: biochemical; conditions: for Product formation (separate 12h experiment) / Product formation (3h) / Product formation (12h): 1 mM substrate; for kinase substrate status: with ATP, HPLC; for Product formation (3h) / Product formation (12h): 25°C
Experimental: (§1) Kinase assays were performed with ATP-regeneration as described for ATP-grasp kinases ITPK1/2 and VIH1/2 [2-3, 27-29], here in 20 mM HEPES pH 6.5, 1 mM MgCl2, 0.5 mM ATP and 1 mM inositol phosphate substrate. The low rate constants for phospho-kinase activity and the low sensitivity of NMR, PAGE and HPLC […]
[2-3, 27-29], here with or without 4 µM protein for 3h or 12h at 25 °C. Competition/inhibition assays were […]
InsP6, and competitor, typically 0.5 mM, incubated with or without 3 µM protein for 2 h at 25 °C . […]
(§2) 0.5 mM inositol pyrophosphate substrate incubated with 4 µM protein at 25 °C . HPLC analysis and detection of inositol phosphates by complexation with ferric ion was performed as described. Peak area data were analysed with the chromatography Jasco ChromNav v.2 software and x,y data were imported into GraphPad Prism v.6 software (GraphPad Software Inc., San Diego, USA) for plotting of chromatograms without additional processing of the data. […]

StITPK1 [3] = molecular target: T1, StITPK1; test: Competition/inhibition of Ins(1,2,3,4,5)P5 5-phospho-kinase activity, HPLC; type: biochemical; conditions: for % inhibition at 3h, Ins(1,2,3,4,5)P5 substrate: 0.5 mM competing substrate/inhibitor, 1 mM Ins(1,2,3,4,5)P5, 3h experiment; for inhibition of Ins(1,2,3,4,5)P5 phospho-kinase activity: 0.5 mM competitor
AtITPK1 = molecular target: T2, AtITPK1; test: Kinase assay with ATP, HPLC of products; type: biochemical, Arabidopsis thaliana; conditions: with ATP, HPLC
T2 construct: made in house
Experimental: as §1
[2-3, 27-29], here with or without 4 µM protein for 3h or 12h at 25 °C. […]
as §2

[4] = 2 nM 2-FAM-InsP5, 50 nM StITPK1, pH 6.5, read-out: Ki for displacement of 2-FAM-InsP5
[5] = Ki for displacement of 2-FAM-InsP5, 2 nM 2-FAM-InsP5, 50 nM StITPK1, pH 6.5

T1 sequence (A4H2J0 entry or part of it): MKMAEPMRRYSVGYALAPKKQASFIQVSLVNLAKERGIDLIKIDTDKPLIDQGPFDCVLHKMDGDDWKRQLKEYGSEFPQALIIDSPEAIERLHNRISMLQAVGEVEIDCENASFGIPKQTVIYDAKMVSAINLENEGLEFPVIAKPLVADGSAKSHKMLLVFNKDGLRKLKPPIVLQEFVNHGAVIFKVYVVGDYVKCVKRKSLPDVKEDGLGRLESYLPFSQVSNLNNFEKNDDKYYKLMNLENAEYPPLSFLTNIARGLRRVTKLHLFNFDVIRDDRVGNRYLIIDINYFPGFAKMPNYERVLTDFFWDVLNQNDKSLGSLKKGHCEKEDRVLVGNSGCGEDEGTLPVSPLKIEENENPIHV

Compound | Ki (StITPK1 [1]; [4]) | Product formation (separate 12h experiment) (StITPK1 [2]) | kinase substrate status (StITPK1 [2]) | Product formation (3h) (StITPK1 [2]) | Product formation (12h) (StITPK1 [2]) | % inhibition at 3h, Ins(1,2,3,4,5)P5 substrate (StITPK1 [3]) | kinase substrate status (AtITPK1) | Ki (StITPK1 [1]; [5]) | inhibition of Ins(1,2,3,4,5)P5 phospho-kinase activity (StITPK1 [3])
O=P(O)(O)O[C@@H]1[C@@H](OP(=O)(O)O)[C@H](OP(=O)(O)O)[C@@H](O)[C@H](OP(=O)(O)O)[C@@H]1OP(=O)(O)O [Ins(1,2,3,4,5)P5, 1D-myo-inositol 1,2,3,4,5-pentakisphosphate] | 431 nM | 257 μM/μM protein | showing phospho-kinase activity |  |  |  |  |  | 
O=C(O)CP(=O)(O)O[C@H]1[C@H](OP(=O)(O)O)[C@@H](OP(=O)(O)O)[C@@H](OP(=O)(O)O)[C@@H](OP(=O)(O)O)[C@@H]1OP(=O)(O)O [5-PA-InsP5, myo-inositol 1,2,3,4,6-penta-phosphate-5-phosphonoacetate] |  |  | strongest phospho-kinase substrate after myo-InsP6 | 50 μM/μM protein | 236 μM/μM protein | 44% | weak substrate |  | 
O=C(CP(=O)(O)O)NC1C(OP(=O)(O)O)C(OP(=O)(O)O)C(OP(=O)(O)O)C(OP(=O)(O)O)C1OP(=O)(O)O (stereo not drawn) [5-PCH2AM-InsP5, 5-deoxy-5-(phosphonoacetamido)-myo-inositol 1,2,3,4,6-pentakisphosphate] |  |  | very weak substrates | 0 μM/μM protein | 25 μM/μM protein | 43% |  | 889 nM | 
O=P(O)(O)OC1C(OP(=O)(O)O)C(OP(=O)(O)O)C(OP(=O)(O)O)C(OP(=O)(O)O)C1OP(=O)(O)O (stereo not drawn) [scyllo-InsP6, scyllo-inositol 1,2,3,4,5,6-hexakisphosphate] |  | 0 μM/μM protein | failure of StITPK1 to phosphorylate |  | 0 μM/μM protein |  |  | 423 nM | 
O=P(O)(O)O[C@@H]1[C@H](OP(=O)(O)O)[C@H](OP(=O)(O)O)[C@@H](O)[C@H](OP(=O)(O)O)[C@H]1OP(=O)(O)O [Ins(1,2,3,5,6)P5, 1D-myo-inositol 1,2,3,5,6-pentakisphosphate] | 288 nM | 0 μM/μM protein | lacking activity |  |  |  |  |  | 
O=P(O)(O)OC1C(OP(=O)(O)O)C(OP(=O)(O)O)C(OP(=O)(O)O)C(OP(=O)(O)O)C1OP(=O)(O)O [D-chiro-InsP6, 1-D-chiro-inositol 1,2,3,4,5,6-hexakisphosphate] |  | 0 μM/μM protein | not a substrate |  | 0 μM/μM protein |  |  | 154 nM | 
O=P(O)(O)O[C@@H]1[C@@H](OP(=O)(O)O)[C@H](OP(=O)(O)O)[C@@H](O)[C@@H](O)[C@H]1OP(=O)(O)O [Ins(1,4,5,6)P4, 1D-myo-inositol 1,4,5,6-tetrakisphosphate] | 2560 nM | 41 μM/μM protein |  |  |  |  |  |  | 
O=P(O)(O)CP(=O)(O)OC1C(OP(=O)(O)O)C(OP(=O)(O)O)C(OP(=O)(O)O)C(OP(=O)(O)O)C1OP(=O)(O)O (stereo not drawn) [5-PCP-InsP5, myo-inositol 1,2,3,4,6-penta-phosphate-5-methylenediphosphonate] | 101 nM |  |  | 0 μM/μM protein | 0 μM/μM protein | 60% |  |  | 
O=P(O)(O)CP(=O)(O)OC1C(OP(=O)(O)O)C(OP(=O)(O)O)C(OP(=O)(O)O)C(OP(=O)(O)O)C1OP(=O)(O)O (stereo not drawn) [3-PCP-InsP5, myo-inositol 1,2,4,5,6-penta-phosphate-3-methylenediphosphonate] |  |  | better substrates | 41 μM/μM protein | 232 μM/μM protein | 78% | better substrates |  | potent inhibitors
O=P(O)(O)OC1[C@@H](OP(=O)(O)O)[C@H](OP(=O)(O)O)C(OP(=O)(O)OP(=O)(O)O)[C@@H](OP(=O)(O)O)[C@H]1OP(=O)(O)O (stereo partly drawn) [3-PP-InsP5, 1D-3-diphospho-myo-inositol 1,2,4,5,6-pentakisphosphate] |  |  | phospho-kinase substrates; also recorded: a stronger substrate than 1-PP-InsP5 | 35 μM/μM protein | 193 μM/μM protein | 71% | a stronger substrate than 1-PP-InsP5 |  | 
O=P(O)(O)OC1C(OP(=O)(O)O)C(OP(=O)(O)O)C(OP(=O)(O)O)C(OP(=O)(O)O)C1OP(=O)(O)O (stereo not drawn) [neo-InsP6, neo-inositol 1,2,3,4,5,6-hexakisphosphate] |  | 0 μM/μM protein | failure of StITPK1 to phosphorylate |  | 0 μM/μM protein |  |  | 111 nM | 
O=P(O)(O)CP(=O)(O)O[C@@H]1[C@H](OP(=O)(O)O)[C@H](OP(=O)(O)O)[C@@H](OP(=O)(O)O)[C@H](OP(=O)(O)O)[C@H]1OP(=O)(O)O [1-PCP-InsP5, myo-inositol 2,3,4,5,6-penta-phosphate-1-methylenediphosphonate] |  |  | better substrates | 22 μM/μM protein | 145 μM/μM protein | 61% | better substrates |  | potent inhibitors
O=C(NC1C(OP(=O)(O)O)C(OP(=O)(O)O)C(OP(=O)(O)O)C(OP(=O)(O)O)C1OP(=O)(O)O)C(F)(F)P(=O)(O)O (stereo not drawn) [5-PCF2AM-InsP5, 5-deoxy-5-(phosphonodifluoroacetamido)-myo-inositol 1,2,3,4,6-pentakisphosphate] |  |  | not a substrate | 0 μM/μM protein | 0 μM/μM protein | 67% |  | 106 nM | 
O=P(O)(O)O[C@@H]1[C@@H](OP(=O)(O)O)[C@@H](OP(=O)(O)O)[C@@H](OP(=O)(O)OP(=O)(O)O)[C@H](OP(=O)(O)O)[C@H]1OP(=O)(O)O [1-PP-InsP5, 1D-1-diphospho-myo-inositol 2,3,4,5,6-pentakisphosphate] |  |  | the weaker substrate | 9 μM/μM protein | 75 μM/μM protein | 76% |  |  | 
